Results published in ChEMBL document CHEMBL2401642, “Sphingosine kinase 2 inhibitor SG-12 induces apoptosis via phosphorylation by sphingosine kinase 2” (2013).
The source made the active and inactive calls. No cut-off for these calls is given here.

How the values were obtained:
[1] = Induction of apoptosis in mouse A20/2J cells assessed as viable cells at 8 uM after 6 hrs by FITC-annexin V/propidium iodide staining-based flow cytometric analysis (reference value: 95.9%); assay type: functional; conditions: read-out: Activity
[2] = biological target: Sphingosine kinase 1 (Mus musculus) (UniProt Q8CI15); experiment: Activity at mouse SPHK1 transfected in mouse A20/2J cell lysates assessed as compound phosphorylation at 10 uM after 30 mins by autoradiography in presence of [gamma-32P]ATP; assay type: cell-free
[3] = biological target: Sphingosine kinase 1 (Mus musculus) (UniProt Q8CI15); experiment: Inhibition of mouse SPHK1 in mouse A20/2J cells using [3-3H]sphingosine as substrate assessed as [3H]S1P formation at 8 uM incubated for 5 mins prior to substrate addition measured after 5 mins; assay type: cell-based
[4] = Induction of apoptosis in mouse SPHK2 G213D mutant-transfected mouse A20/2J cells at 10 uM after 9 hrs by LDH release assay; assay type: functional
[5] = biological target: T1, Sphingosine kinase 2 (Mus musculus) (UniProt Q9JIA7); experiment: Inhibition of mouse SPHK2 in mouse A20/2J cells using [3-3H]sphingosine as substrate assessed as [3H]S1P formation at 8 uM incubated for 5 mins prior to substrate addition measured after 5 mins; assay type: cell-based
T1 sequence (whole entry): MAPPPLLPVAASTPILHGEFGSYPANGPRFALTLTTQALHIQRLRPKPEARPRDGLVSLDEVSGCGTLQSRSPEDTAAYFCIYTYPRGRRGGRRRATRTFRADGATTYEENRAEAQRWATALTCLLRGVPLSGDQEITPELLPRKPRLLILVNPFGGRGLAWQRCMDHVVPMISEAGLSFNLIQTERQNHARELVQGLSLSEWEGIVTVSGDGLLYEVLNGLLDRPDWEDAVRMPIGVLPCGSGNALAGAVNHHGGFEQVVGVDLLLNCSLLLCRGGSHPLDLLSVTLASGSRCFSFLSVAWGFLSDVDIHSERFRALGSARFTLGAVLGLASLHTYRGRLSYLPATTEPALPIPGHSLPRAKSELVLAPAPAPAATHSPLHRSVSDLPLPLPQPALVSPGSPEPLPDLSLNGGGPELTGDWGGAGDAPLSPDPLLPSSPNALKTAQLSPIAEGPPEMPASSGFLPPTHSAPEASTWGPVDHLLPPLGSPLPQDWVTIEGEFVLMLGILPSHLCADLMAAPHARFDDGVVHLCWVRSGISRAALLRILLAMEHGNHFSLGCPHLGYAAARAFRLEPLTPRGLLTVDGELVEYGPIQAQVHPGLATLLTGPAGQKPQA

[6] = Induction of apoptosis in mouse A20/2J cells assessed as activation of caspase 3 at 10 uM after 3 hrs by flow cytometric analysis; assay type: functional
[7] = Induction of apoptosis in mouse SPHK2 L219A mutant-transfected mouse A20/2J cells at 10 uM after 9 hrs by LDH release assay; assay type: functional
[8] = Induction of apoptosis in mouse N-terminal FLAG-tagged SPHK2-transfected mouse A20/2J cells at 10 uM after 9 hrs by LDH release assay; assay type: functional
[9] = system: A20/2J; experiment: Induction of apoptosis in mouse SPHK2-transfected mouse A20/2J cells at 8 uM after 6 hrs by flow cytometric analysis in presence of pan-caspase inhibitor z-VAD-fmk; assay type: functional, cell-based
[10] = system: A20/2J; experiment: Induction of apoptosis in mouse SPHK2-transfected mouse A20/2J cells assessed as chromatin condensation at 8 uM after 18 hrs by transmission electron microscopy; assay type: functional, cell-based
[11] = Induction of apoptosis in mouse SPHK2-transfected mouse A20/2J cells assessed as activation of caspase 3 at 10 uM after 3 hrs by flow cytometric analysis; assay type: functional
[12] = system: A20/2J; experiment: Induction of apoptosis in mouse SPHK1-transfected mouse A20/2J cells assessed as increase in LDH release at 50 uM; assay type: functional, cell-based
[13] = biological target: Sphingosine kinase 1 (Mus musculus) (UniProt Q8CI15); experiment: Inhibition of mouse SPHK1 in mouse A20/2J cells using [3-3H]sphingosine as substrate assessed as [3H]S1P formation at 2 to 4 uM incubated for 5 mins prior to substrate addition measured after 5 mins; assay type: cell-based
[14] = Induction of apoptosis in mouse SPHK2-transfected mouse A20/2J cells assessed as early apoptotic cells at 8 uM after 6 hrs by FITC-annexin V/propidium iodide staining-based flow cytometric analysis (reference value: 2.48%); assay type: functional
[15] = Induction of apoptosis in mouse A20/2J cells assessed as early apoptotic cells at 8 uM after 6 hrs by FITC-annexin V/propidium iodide staining-based flow cytometric analysis (reference value: 2.58%); assay type: functional
[16] = system: A20/2J; experiment: Induction of apoptosis in mouse SPHK2-transfected mouse A20/2J cells assessed as increase in LDH release after 8 hrs; assay type: functional, cell-based
[17] = biological target: T1, Sphingosine kinase 2 (Mus musculus); experiment: Activity at mouse SPHK2 transfected in mouse A20/2J cell lysates assessed as compound phosphorylation at 10 uM after 30 mins by autoradiography in presence of [gamma-32P]ATP; assay type: cell-free
[18] = biological target: T1, Sphingosine kinase 2 (Mus musculus); experiment: Inhibition of mouse SPHK2 in mouse A20/2J cells using [3-3H]sphingosine as substrate assessed as [3H]S1P formation at 2 to 4 uM incubated for 5 mins prior to substrate addition measured after 5 mins; assay type: cell-based
[19] = system: A20/2J; experiment: Induction of apoptosis in mouse A20/2J cells assessed as increase in LDH release at 10 uM up to 10 hrs; assay type: functional, cell-based
[20] = Induction of apoptosis in mouse A20/2J cells assessed as late apoptotic cells at 8 uM after 6 hrs by FITC-annexin V/propidium iodide staining-based flow cytometric analysis (reference value: 1.39%); assay type: functional
[21] = system: A20/2J; experiment: Induction of apoptosis in mouse SPHK1-transfected mouse A20/2J cells assessed as increase in LDH release at 10 uM up to 10 hrs; assay type: functional, cell-based
[22] = Induction of apoptosis in mouse SPHK2-transfected mouse A20/2J cells assessed as viable cells at 8 uM after 6 hrs by FITC-annexin V/propidium iodide staining-based flow cytometric analysis (reference value: 96.1%); assay type: functional; conditions: read-out: Activity
[23] = system: A20/2J; experiment: Induction of apoptosis in mouse SPHK2-transfected mouse A20/2J cells assessed as increase in LDH release at 50 uM; assay type: functional, cell-based
[24] = Induction of apoptosis in mouse SPHK2 R293E/R294E mutant-transfected mouse A20/2J cells at 10 uM after 9 hrs by LDH release assay; assay type: functional
[25] = system: A20/2J; experiment: Induction of apoptosis in mouse SPHK2-transfected mouse A20/2J cells assessed as increase in LDH release at 10 uM; assay type: functional, cell-based; conditions: TDE = time-dependent effect
[26] = Induction of apoptosis in mouse SPHK1-transfected mouse A20/2J cells assessed as activation of caspase 3 at 10 uM after 3 hrs by flow cytometric analysis; assay type: functional
[27] = Induction of apoptosis in mouse SPHK2-transfected mouse A20/2J cells assessed as late apoptotic cells at 8 uM after 6 hrs by FITC-annexin V/propidium iodide staining-based flow cytometric analysis (reference value: 1.12%); assay type: functional
[28] = system: A20/2J; experiment: Induction of apoptosis in mouse SPHK2-transfected mouse A20/2J cells assessed as increase in LDH release at 10 uM after 6 hrs; assay type: functional, cell-based
[29] = Induction of apoptosis in mouse N-terminal FLAG-tagged SPHK1-transfected mouse A20/2J cells at 10 uM after 9 hrs by LDH release assay; assay type: functional

Sequence of Sphingosine kinase 1 (Mus musculus) (Q8CI15 whole entry): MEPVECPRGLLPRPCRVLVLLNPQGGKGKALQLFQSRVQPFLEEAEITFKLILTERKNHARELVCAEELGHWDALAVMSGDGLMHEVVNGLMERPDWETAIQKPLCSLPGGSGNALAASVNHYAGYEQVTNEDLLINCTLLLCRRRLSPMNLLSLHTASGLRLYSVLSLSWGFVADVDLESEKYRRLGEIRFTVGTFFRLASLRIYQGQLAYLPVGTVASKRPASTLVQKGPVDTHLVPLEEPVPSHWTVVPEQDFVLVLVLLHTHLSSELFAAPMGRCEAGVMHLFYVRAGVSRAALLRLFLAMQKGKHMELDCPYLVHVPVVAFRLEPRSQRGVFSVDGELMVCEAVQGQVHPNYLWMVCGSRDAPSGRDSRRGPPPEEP

**Q.** With `CCCCCCCCc1ccc(C[C@@H](O)[C@@H](N)CO)cc1` as the compound, how does the viability at 8 µM [1] read?
**A.** 93.2%

**Q.** What about the Activity [2] of the same compound?
**A.** Active

**Q.** What about the inhibition [3] of the same compound?
**A.** 8%

**Q.** What about the Activity [4] of the same compound?
**A.** 9.8%

**Q.** What about the inhibition [5] of the same compound?
**A.** 46%

**Q.** What about the Activity [6] of the same compound?
**A.** 9.6%

**Q.** And the Activity [7]?
**A.** 20.3%

**Q.** What about the Activity [8] of the same compound?
**A.** 18.4%

**Q.** And the Activity [9]?
**A.** Active

**Q.** And the Activity [10]?
**A.** Active

**Q.** And the Activity [11]?
**A.** 31.8%

**Q.** What about the Activity [12] of the same compound?
**A.** Active

**Q.** And the inhibition [13]?
**A.** Active

**Q.** And the Activity [14]?
**A.** 7.86%

**Q.** And the Activity [15]?
**A.** 5.06%

**Q.** And the Activity [16]?
**A.** Dose-dependent effect

**Q.** And the Activity [17]?
**A.** Active

**Q.** And the inhibition [18]?
**A.** Active

**Q.** And the Activity [19]?
**A.** Active

**Q.** And the Activity [20]?
**A.** 1.62%

**Q.** What about the Activity [21] of the same compound?
**A.** Active

**Q.** And the viability at 8 µM [22]?
**A.** 70.1%

**Q.** And the Activity [23]?
**A.** Active

**Q.** And the Activity [24]?
**A.** 13.2%

**Q.** What about the Activity [25] of the same compound?
**A.** tde

**Q.** What about the Activity [26] of the same compound?
**A.** 6.4%

**Q.** What about the Activity [27] of the same compound?
**A.** 19%

**Q.** And the Activity [28]?
**A.** Active

**Q.** And the Activity [29]?
**A.** 17.8%

**Q.** For `CCCCCCCCc1ccc(C[C@H](O)[C@@H](N)CO)cc1`, which Activity [2] is on record?
**A.** Active

**Q.** And the inhibition [13]?
**A.** inactive

**Q.** What about the Activity [17] of the same compound?
**A.** Active

**Q.** What about the inhibition [18] of the same compound?
**A.** inactive
